From patent US11185527B2, “Methods and compositions relating to steroid hormone receptor-dependent cancers” (Wayne State University, priority 2017, dated 2021)

How the values were obtained:
[1] = tested on: DU145 (prostate cancer cells), AR-negative; assay: Cell monolayer growth assay (MTT); type: cell-based
Protocol: FIG. 12A is a graph showing the effect of KCI807 on in vitro growth of AR-negative cell line Du145 cells measured by the MTT assay. All values were plotted relative to the Day zero value.
FIG. 16E is a graph showing the effect of 5′-Fluoro-5,3′-Dihydroxyflavone at various concentrations on growth of DU145 cells.
Cells were trypsinized and 3000-4000 cells/well were seeded in 96-well plates coated with poly-D-lysine. The cells were seeded in phenol red-free medium supplemented with 10% FBS, 100 units/ml penicillin, 100 μg/ml streptomycin, 2 mM L-glutamine mixture and sodium pyruvate (1 mM) for LNCaP cells and phenol red-free medium supplemented with 10% FBS, 100 units/ml penicillin, 100 μg/ml streptomycin and 2 mM L-glutamine mixture for VCaP, 22Rv1, DU145, HeLa, HEK293 and H1650 cells. The cells were grown at 37° C. in 5% CO2. Twenty four hours after seeding in the 96-well plates, the cells were treated with the indicated concentration of KCI807 or DMSO (vehicle). The cells were re-treated on Day 3 by removing half the volume of medium and replacing it with fresh treated medium. Cell viability was determined using the MTT assay from day zero until day five. […] The formazan crystal sediments were dissolved in 100 μL of DMSO, and the absorbance at 570 nm was measured using the BioTek Synergy 2 Microplate Reader (BioTek, Winooski, Vt.). […]

[2] = tested on: H1650 (lung adenocarcinoma cells), AR-negative; assay: Cell monolayer growth assay (MTT); type: cell-based
Protocol: (§1) FIG. 12D is a graph showing the effect of KCI807 on in vitro growth of AR-negative cell line H1650 cells measured by the MTT assay. All values were plotted relative to the Day zero value. Cells were trypsinized and 3000-4000 cells/well were seeded in 96-well plates coated with poly-D-lysine. The cells were seeded in phenol red-free medium supplemented with 10% FBS, 100 units/ml penicillin, 100 μg/ml streptomycin, 2 mM L-glutamine mixture and sodium pyruvate (1 mM) for LNCaP cells and phenol red-free medium supplemented with 10% FBS, 100 units/ml penicillin, 100 μg/ml streptomycin and 2 mM L-glutamine mixture for VCaP, 22Rv1, DU145, HeLa, HEK293 and H1650 cells. The cells were grown at 37° C. in 5% CO2. Twenty four hours after seeding in the 96-well plates, the cells were treated with the indicated concentration of KCI807 or DMSO (vehicle). The cells were re-treated on Day 3 by removing half the volume of medium and replacing it with fresh treated medium. Cell viability was determined using the MTT assay from day zero until day five. MTT (10 μL, 5 mg/mL) was added to each well and incubated for 2h at 37° C. The formazan crystal sediments were dissolved in 100 μL of DMSO, and the absorbance at 570 nm was measured using the BioTek Synergy 2 Microplate Reader (BioTek, Winooski, Vt.). The assay was conducted in sextuplicate wells and values were normalized to day zero.

[3] = tested on: protein level of AR or AR-V7; assay: Western blot of AR in LNCaP, VCaP and 22Rv1 cells; type: cell-based; conditions: VCaP, 10 μM, 24h
Protocol: Protein lysates were extracted after 24h of treatment and probed using antibodies to AR and GAPDH (loading control).
The treated cells were washed once with phosphate buffered saline (PBS) and then lysed with RIPA buffer (150 mM NaCl, 1% Nonidet P-40, 0.5% sodium deoxycholate, 0.1% SDS, 50 mM Tris of pH 8.0) containing a protease inhibitor cocktail (Pierce, Thermo Fisher Scientific). The cell lysates were then incubated on ice for 40 minutes and vortexed every 10 minutes. Total protein concentrations were estimated using the Bradford Assay (Bio-Rad). Ten micrograms of each protein sample was heated at 95° C. for 5 minutes and resolved by electrophoresis on 8% polyacrylamide-SDS gels and electrophoretically transferred to PVDF membranes (Millipore, Billerica, Mass.). The membranes were then probed overnight at 4° C. with the appropriate primary antibody followed by the appropriate horseradish peroxidase-conjugated secondary antibody. The blots were then developed to visualize the protein bands using the HyGLO

[4] = mouse, in vivo
[5] = tested on: HeLa (cervical cancer cells), AR-negative; assay: Cell monolayer growth assay (MTT); type: cell-based
Protocol: as §1, with “FIG. 12B” for “FIG. 12D”, “line HeLa” for “line H1650”

O=c1cc(-c2cc(O)cc(F)c2)oc2cccc(O)c12 [5′-fluoro-5,3′-dihydroxyflavone]
growth of DU145 cells [1]: did not inhibit growth

O=c1cc(-c2cccc(O)c2)oc2cccc(O)c12 [KCI807, 5,3′-dihydroxyflavone]
growth of H1650 cells [2]: did not appreciably affect the growth | protein level of AR or AR-V7 [3]: in no case did KCI807 treatment alter the protein level | growth of DU145 cells [1]: did not appreciably affect the growth | symptoms during the study, 22Rv1 xenograft [4]: asymptomatic | weight loss (in words), 22Rv1 xenograft [4]: did not show appreciable weight loss | growth of HeLa cells [5]: did not appreciably affect the growth
